From PubChem BioAssay (NCI) come the findings set out here.

Among the test systems are SK-MEL-2 melanoma; K-562 leukemia; DU-145 prostate; IGROV1 ovarian; HT29 colon; M14 melanoma; SF-539 CNS; MALME-3M melanoma; BT-549 breast; HOP-62 NSCLC; MDA-MB-435; HCT-15 colon; ACHN renal; 786-0 renal.
What all share (assay): inhibition of tumour cell growth, NCI panel, 48 h

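Growth conditions: 96-well plates. Treatment: test compound, 48 hours, 5 concentrations. Analysis: linear interpolation between bracketing concentrations; unreached endpoints set to highest concentration. TGI denotes the concentration required for complete inhibition of growth.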

For the molecule `Cc1cc(C)c2c(=O)cc(-c3ccc(Cl)cc3)[nH]c2n1`, the TGI was greater than 100 µM with SK-MEL-2 melanoma; greater than 71.4 µM in the experiment with K-562 leukemia; greater than 100 µM in the experiment on DU-145 prostate; greater than 100 µM with IGROV1 ovarian; greater than 48.5 µM in the experiment on HT29 colon; greater than 100 µM in the experiment with M14 melanoma. Moreover, the TGI is greater than 100 µM in the experiment on SF-539 CNS; greater than 59.3 µM with MALME-3M melanoma; 99.4 µM with BT-549 breast; greater than 100 µM with HOP-62 NSCLC; 27.6 µM in the experiment on MDA-MB-435; greater than 100 µM with HCT-15 colon. Further, the TGI with ACHN renal and in the experiment on 786-0 renal was greater than 100 µM throughout.

For `CCOC(=O)c1sc2nc(SC)nc(Nc3ccc4c(c3)OCCCO4)c2c1N`, the TGI in the experiment on SK-MEL-2 melanoma, with K-562 leukemia, in the experiment on DU-145 prostate, in the experiment on IGROV1 ovarian, in the experiment on HT29 colon and with M14 melanoma was greater than 100 µM in each case. Also, the TGI is greater than 100 µM in the experiment on SF-539 CNS; 80.7 µM in the experiment on MALME-3M melanoma; greater than 100 µM with BT-549 breast; 61.5 µM with HOP-62 NSCLC; greater than 100 µM with MDA-MB-435; greater than 100 µM in the experiment on HCT-15 colon. The TGI with ACHN renal and with 786-0 renal was greater than 100 µM throughout.

Consider `c1ccc(COCC23CCN(Cc4ccccc4)C(CC(OCc4ccccc4)C2)S3)cc1` (configuration not stated), for which the TGI in the experiment with SK-MEL-2 melanoma, in the experiment with K-562 leukemia, with DU-145 prostate, with IGROV1 ovarian, with HT29 colon and in the experiment with M14 melanoma was greater than 100 µM each time. In addition, the TGI in the experiment with SF-539 CNS, with MALME-3M melanoma, in the experiment on BT-549 breast, in the experiment on HOP-62 NSCLC, in the experiment with MDA-MB-435 and in the experiment on HCT-15 colon was greater than 100 µM each time. Moreover, the TGI in the experiment on ACHN renal and with 786-0 renal was greater than 100 µM in each case.

With `Cc1[nH]c2c(C)ccc(C)c2c1CC(=O)O`, the TGI was 81.9 µM with SK-MEL-2 melanoma; greater than 100 µM in the experiment on K-562 leukemia; greater than 100 µM with DU-145 prostate; greater than 100 µM with IGROV1 ovarian; greater than 100 µM with HT29 colon; greater than 100 µM in the experiment on M14 melanoma. Moreover, the TGI in the experiment with SF-539 CNS, in the experiment with MALME-3M melanoma, in the experiment on BT-549 breast, in the experiment on HOP-62 NSCLC, in the experiment on MDA-MB-435 and in the experiment on HCT-15 colon was greater than 100 µM throughout. The TGI in the experiment with ACHN renal and in the experiment on 786-0 renal was greater than 100 µM throughout.

`CNC(=O)Nc1cc2c3c(c1)CCCN3CCC2`: the TGI in the experiment with SK-MEL-2 melanoma, in the experiment on K-562 leukemia, with DU-145 prostate, in the experiment with IGROV1 ovarian, in the experiment with HT29 colon and in the experiment on M14 melanoma was greater than 10 µM in each case. Further, the TGI with SF-539 CNS, with MALME-3M melanoma, in the experiment with BT-549 breast, in the experiment on HOP-62 NSCLC, with MDA-MB-435 and with HCT-15 colon was greater than 10 µM in each case. Besides, the TGI in the experiment with ACHN renal and in the experiment with 786-0 renal was greater than 10 µM each time.

Regarding `CN(C)c1ccc(N=Nc2cccc3ccoc23)cc1`, the TGI with SK-MEL-2 melanoma, in the experiment with K-562 leukemia, with DU-145 prostate, with IGROV1 ovarian, with HT29 colon and in the experiment on M14 melanoma was greater than 100 µM in each case. The TGI in the experiment on SF-539 CNS, in the experiment with MALME-3M melanoma, in the experiment with BT-549 breast, in the experiment on HOP-62 NSCLC, in the experiment on MDA-MB-435 and in the experiment with HCT-15 colon was greater than 100 µM each time. Besides, the TGI with ACHN renal and in the experiment with 786-0 renal was greater than 100 µM throughout.

Consider `NCC(=O)C(O)C(O)C(O)CO` (configuration not stated), for which the TGI with SK-MEL-2 melanoma, with K-562 leukemia, in the experiment on DU-145 prostate, with IGROV1 ovarian, in the experiment on HT29 colon and with M14 melanoma was greater than 100 µM each time. Further, the TGI with SF-539 CNS, in the experiment with MALME-3M melanoma, with BT-549 breast, with HOP-62 NSCLC, with MDA-MB-435 and in the experiment with HCT-15 colon was greater than 100 µM in each case. In addition, the TGI in the experiment on ACHN renal and in the experiment on 786-0 renal was greater than 100 µM in each case.

With `O=C(NO)c1cccc(OCc2ccc(Br)cc2)c1`, the TGI in the experiment with SK-MEL-2 melanoma was 50 µM; with K-562 leukemia, greater than 47.5 µM; in the experiment on DU-145 prostate, 13.7 µM; in the experiment on IGROV1 ovarian, 35 µM; with HT29 colon it was 35.8 µM; with M14 melanoma, 20.1 µM. Moreover, the TGI in the experiment on SF-539 CNS was greater than 41.4 µM; in the experiment on MALME-3M melanoma, 17.6 µM; in the experiment on BT-549 breast, greater than 100 µM; in the experiment on HOP-62 NSCLC, 52.8 µM; with MDA-MB-435 it was 38.7 µM; in the experiment on HCT-15 colon it was greater than 100 µM. Further, the TGI in the experiment on ACHN renal came out at 12.8 µM; in the experiment with 786-0 renal it was 10.9 µM.
